The results in this text go back to US20120220594A1, “METHODS FOR TREATING CANCER IN PATIENTS HAVING IGF-1R INHIBITOR RESISTANCE” (Bristol-Meyers Squibb Company, priority 2009, published 2012).

One assay concerns Rh41-MAB391R cells. The experiment in a line: 3H-thymidine incorporation cell proliferation assay in MAB391-resistant Rh41-MAB391R cells. The note with it: Rh41-MAB391R cells, 72 h, 3H-thymidine incorporation; Table 1; read-out: IC50 (nM) Rh41-MAB391R. It is filed as cell-based, human. From the text:
Human rhabdomyosarcoma cell line Rh41 was provided by Dr. Lee Helman and grown in RPMI medium plus GLUTAMAX® supplemented with 10% fetal bovine serum (FBS), 10 mmol/L HEPES, penicillin, and streptomycin. To develop acquired resistant cells to either BMS-754807, or mAB391 (R&D Systems, Inc., Minneapolis, Minn.), the sensitive Rh41 cells were exposed to the corresponding drug at the IC50 concentration and then at gradually increasing concentrations every other culture passage. The IC50 value to the compound was measured periodically during this treatment time until the resistance level reached a plateau.
Human rhabdomyosarcoma cell line Rh41 was chosen in this study to develop acquired resistance because it expresses IGF-1R (Huang et al., Cancer Res., 69(1):161-170 (Jan. 1, 2009)), the target of BMS-754807 and MAB391; and is sensitive to both drugs (Carboni et al., Proceedings of the 100th Annual Meeting of the American Association for Cancer Research, 2009 Apr. 18-22; Denver, Colo., Abstract No. 1742). The acquired-resistant Rh41-807R and Rh41-MAB391R cell lines were developed using a stepwise exposure to increasing concentrations of either IGF-1R/IR inhibitor BMS-754807 or IGF-1R antibody MAB391 for extended periods of time until a resistance plateau was reach. […];

The next assay relates to Rh41-807R cells. Nature of the assay: 3H-thymidine incorporation cell proliferation assay in BMS-754807-resistant Rh41-807R cells. It counts as cell-based, human. From the text:
(§1) Human rhabdomyosarcoma cell line Rh41 was provided by Dr. Lee Helman and grown in RPMI medium plus GLUTAMAX® supplemented with 10% fetal bovine serum (FBS), 10 mmol/L HEPES, penicillin, and streptomycin.

A further assay deals with Rh41 cells. The experiment in a line: 3H-thymidine incorporation cell proliferation assay in parental Rh41 cells. It counts as cell-based, human.
Excerpt: as §1

Assay [1] addresses type I-IGF receptor (IGF-1R), as expressed by human rhabdomyosarcoma Rh41 cells and the derived resistant lines (human) (UniProt P08069). Nature of the assay: cell-based or functional assay.
Setting [2] is: Homo sapiens, Rh41-807R cells, PDGFR inhibitors, Table 7, read-out: Rh41-807R IC50.
Where [3] appears, read: Homo sapiens, Rh41 cells, PDGFR inhibitors, Table 7, read-out: Rh41 IC50.
[4] abbreviates: Homo sapiens, Rh41-807R cells, cytotoxic agents and mTOR inhibitor, Table 2, read-out: Rh41-807R IC50.
Setting [5] is: cytotoxic agents and mTOR inhibitor.
Where [6] appears, read: Homo sapiens, Rh41 cells, cytotoxic agents and mTOR inhibitor, Table 2, read-out: Rh41 IC50.

Where two headings read alike, the source gives them in different places. Bounds are passed on as bounds.

Chain of type I-IGF receptor (IGF-1R), as expressed by human rhabdomyosarcoma Rh41 cells and the derived resistant lines (human) (P08069 31-1367, change not shown): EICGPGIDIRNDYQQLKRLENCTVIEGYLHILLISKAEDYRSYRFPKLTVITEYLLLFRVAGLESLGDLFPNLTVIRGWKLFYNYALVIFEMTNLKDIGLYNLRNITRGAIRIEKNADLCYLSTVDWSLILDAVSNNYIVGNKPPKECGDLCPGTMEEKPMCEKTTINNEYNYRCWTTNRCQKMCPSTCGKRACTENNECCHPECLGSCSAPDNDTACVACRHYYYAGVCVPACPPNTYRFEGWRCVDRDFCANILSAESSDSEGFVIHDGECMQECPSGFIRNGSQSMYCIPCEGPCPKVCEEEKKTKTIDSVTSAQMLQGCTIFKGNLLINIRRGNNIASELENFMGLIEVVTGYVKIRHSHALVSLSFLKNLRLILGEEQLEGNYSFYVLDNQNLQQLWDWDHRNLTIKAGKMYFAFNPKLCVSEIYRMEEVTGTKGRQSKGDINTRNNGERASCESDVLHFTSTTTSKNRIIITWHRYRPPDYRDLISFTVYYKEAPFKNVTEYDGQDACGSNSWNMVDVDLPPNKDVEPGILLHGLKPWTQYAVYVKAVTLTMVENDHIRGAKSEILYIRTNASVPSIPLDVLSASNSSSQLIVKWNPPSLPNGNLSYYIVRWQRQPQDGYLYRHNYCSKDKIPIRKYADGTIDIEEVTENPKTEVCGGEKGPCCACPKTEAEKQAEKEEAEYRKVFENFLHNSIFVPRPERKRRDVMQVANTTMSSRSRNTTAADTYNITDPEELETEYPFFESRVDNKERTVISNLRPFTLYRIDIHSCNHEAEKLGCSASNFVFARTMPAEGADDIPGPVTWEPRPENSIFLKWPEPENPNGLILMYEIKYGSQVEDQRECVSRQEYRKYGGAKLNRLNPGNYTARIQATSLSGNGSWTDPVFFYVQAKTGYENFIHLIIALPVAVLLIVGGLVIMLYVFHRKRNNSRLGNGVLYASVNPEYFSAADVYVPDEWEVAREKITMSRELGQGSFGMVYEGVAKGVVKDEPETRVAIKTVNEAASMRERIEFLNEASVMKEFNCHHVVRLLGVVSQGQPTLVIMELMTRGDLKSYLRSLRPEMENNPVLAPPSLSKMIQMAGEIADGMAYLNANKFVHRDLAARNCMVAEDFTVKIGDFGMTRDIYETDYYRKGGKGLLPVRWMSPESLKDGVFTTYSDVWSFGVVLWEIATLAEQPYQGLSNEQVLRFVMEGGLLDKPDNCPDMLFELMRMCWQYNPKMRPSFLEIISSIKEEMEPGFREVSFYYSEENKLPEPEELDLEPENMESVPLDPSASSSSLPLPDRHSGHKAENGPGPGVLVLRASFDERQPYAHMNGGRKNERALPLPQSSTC

As for `Cc1cc(N2CCOCC2)cc2[nH]c(-c3c(NC[C@@H](O)c4cccc(Cl)c4)cc[nH]c3=O)nc12` [BMS-536924], the IC50 was 90.2 ± 2.2 nM with Rh41-MAB391R cells; > 1000 nM in the assay with Rh41-807R cells (Rh41-807R cells, 72 h, 3H-thymidine incorporation, Table 1, read-out: IC50 (nM) Rh41-807R); 31 nM in the assay with Rh41 cells (Rh41 parental cells, 72 h, 3H-thymidine incorporation, Table 1, read-out: IC50 (nM) Rh41).

For the compound `CN1CCN(c2ccc3nc(-c4c(N)c5c(F)cccc5[nH]c4=O)[nH]c3c2)CC1` [Dovitinib], the IC50 with Rh41-807R cells (setting [2]) stood at 722 ± 264 nM; in the assay with Rh41 cells (setting [3]) it was 6456 ± 60 nM.

Turning to `Nc1ccn([C@@H]2O[C@H](CO)[C@@H](O)C2(F)F)c(=O)n1` [Gemcitabine], the IC50 in the assay on Rh41-807R cells (setting [4]) was determined as 3 nM; in the assay with Rh41 cells (setting [6]), 1.1 ± 0.4 nM. In the assay on Rh41-807R cells (setting [5]), the “sensitivity of Rh41-807R compared with the parental line” value is listed as “very similar level of sensitivity as the parental line”.

For the compound `C/C(=C\c1csc(C)n1)[C@@H]1C[C@@H]2O[C@]2(C)CCC[C@H](C)[C@H](O)[C@@H](C)C(=O)C(C)(C)[C@@H](O)CC(=O)N1` [Ixabepilone], the IC50 with Rh41-807R cells (setting [4]) was found to be 3.4 ± 0.4 nM; with Rh41 cells (setting [6]), 4 nM.

With `CO[C@H]1C[C@@H]2CC[C@@H](C)[C@@](O)(O2)C(=O)C(=O)N2CCCC[C@H]2C(=O)O[C@H]([C@H](C)C[C@@H]2CC[C@@H](O)[C@H](OC)C2)CC(=O)[C@H](C)/C=C(\C)[C@@H](O)[C@@H](OC)C(=O)[C@H](C)C[C@H](C)/C=C/C=C/C=C/1C` [Rapamycin], the IC50 with Rh41-807R cells (setting [4]) and with Rh41 cells (setting [6]) was < 0.32 nM in each case.

`CNC(=O)c1cc(Oc2ccc(NC(=O)Nc3ccc(Cl)c(C(F)(F)F)c3)cc2)ccn1` [Sorafenib]: the IC50 in the assay with Rh41-807R cells (setting [2]) is 804 ± 210 nM; in the assay on Rh41 cells (setting [3]), > 2000 nM.

On to `CCN(CC)CCNC(=O)c1c(C)[nH]c(/C=C2\C(=O)Nc3ccc(F)cc32)c1C` [Sunitinib], for which the figures for the IC50 in the assay with Rh41-807R cells (setting [2]) and in the assay on Rh41 cells (setting [3]) were 1020 ± 321 nM and 1400 ± 634 nM, respectively.

In the case of `CC(=O)O[C@H]1C(=O)[C@@]2(C)[C@H]([C@H](OC(=O)c3ccccc3)[C@]3(O)C[C@H](OC(=O)[C@H](O)[C@@H](NC(=O)c4ccccc4)c4ccccc4)C(C)=C1C3(C)C)[C@]1(OC(C)=O)CO[C@@H]1C[C@@H]2O` [TAXOL ®, paclitaxel], the 50% inhibitory concentration (IC50) in the assay on Rh41-807R cells (setting [4]) was determined as 1.8 ± 0.3 nM; in the assay on Rh41 cells (setting [6]), 2.1 ± 0.4 nM. Further, in the assay with Rh41-807R cells (setting [5]), the “sensitivity of Rh41-807R compared with the parental line” value was “very similar level of sensitivity as the parental line”.

For the compound `CC(=O)O[C@@]12CO[C@@H]1C[C@H](O)[C@@]1(C)C(=O)[C@H](O)C3=C(C)[C@@H](OC(=O)[C@H](O)[C@@H](NC(=O)OC(C)(C)C)c4ccccc4)C[C@@](O)([C@@H](OC(=O)c4ccccc4)[C@H]21)C3(C)C` [Taxotere], the IC50 in the assay on Rh41-807R cells (setting [4]) and in the assay with Rh41 cells (setting [6]) was 0.5 nM throughout.

Consider `CC[C@]12C=CCN3CC[C@@]4(c5cc([C@@]6(C(=O)OC)C[C@@H]7C[C@@H](C(C)(F)F)CN(Cc8c6[nH]c6ccccc86)C7)c(OC)cc5N(C)[C@H]4[C@@](O)(C(=O)OC)[C@@H]1OC(C)=O)[C@@H]32` [Vinflunine], for which the half-inhibitory concentration (IC50) in the assay on Rh41-807R cells (Homo sapiens, read-out: Rh41-807R IC50 (nM)) stood at 21 ± 3 nM; in the assay with Rh41 cells (Homo sapiens, Rh41, read-out: Rh41 IC50 (nM)) it was 28 ± 2.8 nM.

Regarding “MAB391 (R&D Systems), IGF-1R neutralizing antibody”, in assay [1], the IC50 (nM), growth inhibition of Rh41-807R cells, 3H-thymidine incorporation, 72 h was > 2000 nM; the IC50 (nM), growth inhibition of Rh41-MAB391R cells, 3H-thymidine incorporation, 72 h is > 2000 nM; the IC50 (nM), growth inhibition of Rh41 parental cells, 3H-thymidine incorporation, 72 h worked out at 0.1 nM.
